Where “and” joins values, the source holds several entries; their conditions need not be identical. Equal entries are not always repeated. Entries after “also recorded” stand apart in the source; their conditions may differ.
What was measured:
[1] = Physical stability / water solubility of the inhibitor formulation (observation); type: physicochemical; conditions: for physical stability of the formulation: 418.4 mM solution in water
[2] = Wheel box test (NACE publication ID182), corrosion of carbon steel coupons in CO2-saturated brine/oil; conditions: for corrosion inhibitor performance (in words): wheel box test
Description: To determine the efficacy of the compositions as corrosion inhibitors, a wheel box test was used. It is a testing methodology from NACE publication ID182. The method is used to assess the degree of protection afforded to a metal surface that is in contact with water laden with carbon dioxide (C02). The wheel box test is a test that is often used in the field for comparative corrosion inhibitor performance tests. The standard test conditions used in the performance test are in Table 1.
A continuous wheel box test procedure was used to compare the performance of the corrosion inhibitor formulations of the invention in mitigating the corrosion of carbon steel in solutions saturated with carbon dioxide. Into a set of bottles containing the desired brine and oil mixtures, Table 1, clean and pre-weighed coupons were immersed. The solution was purged with carbon dioxide, after which the solutions were dosed with the various concentrations of the formulations. After purging the headspace with carbon dioxide, the bottles were immediately capped to prevent aerial exposure.
Blanks, comprising bottles of untreated mixtures, were used to determine the baseline corrosion rate under the test conditions. The bottles were placed on a rotating wheel under incubation at 80° C. for a period of 24 hours. Following the completion of the incubation, the bottles were retrieved and left to cooled to room temperature. The coupons were removed from the test solutions, cleaned, dried, sandblasted and re-weighed. By comparing the mass loss of the coupons immersed in treated solutions versus the mass loss for coupons placed in untreated solutions, the corrosion rate and protection efficiency were calculated.

[3] = 5 ppm of Corrosion Inhibitor, low dosage comparison, method of Example 4
[4] = 10 ppm of Corrosion Inhibitor, low dosage comparison, method of Example 4
[5] = 25 ppm of Corrosion Inhibitor, low dosage comparison, method of Example 4
[6] = 50 ppm of Corrosion Inhibitor, low dosage comparison, method of Example 4
[7] = 20000 ppm inhibitor, 80° C., 24 hours, CO2 saturated, 80% ASTM Seawater brine / 20% LVT-200
[8] = 50000 ppm inhibitor, 80° C., 24 hours, CO2 saturated, 80% ASTM Seawater brine / 20% LVT-200
[9] = 5000 ppm inhibitor, 80° C., 24 hours, CO2 saturated, 80% ASTM Seawater brine / 20% LVT-200

SMILES	physical stability of the formulation [1]	% Protection [2, 3]	% Protection [2, 4]	% Protection [2, 5]	% Protection [2, 6]	% Protection [2, 7]	% Protection [2, 8]	% Protection [2, 9]	corrosion inhibitor performance (in words) [2]	other results
CC(=O)[O-].CCCCCCCC/C=C\CCCCCCCC1=[N+](CC(O)c2ccccc2)CCN1CCNC1OC(CO)C(O)C(O)C1O (stereo not shown) [Formula 2, (Z)-2-(heptadec-8-en-1-yl)-3-(2-hydroxy-2-phenylethyl)-1-(2-((3,4,5-trihydroxy-6-(hydroxymethyl)tetrahydro-2H-pyran-2-yl)amino)ethyl)-4,5-dihydro-1H-imidazol-3-ium acetate salt]	physically stable	28%	36%	57%	73%	94%	94%			solubility in water [1]: high solubility in water; % Protection ([2]; 500 ppm inhibitor, 80° C., 24 hours, CO2 saturated, 80% ASTM Seawater brine / 20% LVT-200, listed as Formulation 2, acetate salt): 91% and 92%; % Protection ([2]; 1000 ppm inhibitor, 80° C., 24 hours, CO2 saturated, 80% ASTM Seawater brine / 20% LVT-200): 92%; % Protection ([2]; 2000 ppm inhibitor, 80° C., 24 hours, CO2 saturated, 80% ASTM Seawater brine / 20% LVT-200, listed as Formulation 2, acetate salt): 91% and 92%; % Protection ([2]; 5000 ppm inhibitor, 80° C., 24 hours, CO2 saturated, 80% ASTM Seawater brine / 20% LVT-200, listed as Formulation 2, acetate salt): 92% and 93%; % Protection ([2]; 10000 ppm inhibitor, 80° C., 24 hours, CO2 saturated, 80% ASTM Seawater brine / 20% LVT-200, listed as Formulation 2, acetate salt): 93% and 94%; corrosion inhibitor performance (in words) ([2]; acetate salt): greatly improved corrosion inhibitor performance even at low dosages; also recorded: highly effective; also recorded: perform significantly better than the comparative sample even at low dosage rates
CCCCCCCC/C=C\CCCCCCCC1=NCCN1CCN [Comparative Formulation, Acetate, reference compound]	physically unstable	14%	24%	42%	55%	89%	90%	89%	robust even at low treatment doses	% Protection ([2]; 500 ppm inhibitor, 80° C., 24 hours, CO2 saturated, 80% ASTM Seawater brine / 20% LVT-200, Acetate): 88% and 89%; % Protection ([2]; 1000 ppm inhibitor, 80° C., 24 hours, CO2 saturated, 80% ASTM Seawater brine / 20% LVT-200, Acetate): 89% and 90%; % Protection ([2]; 2000 ppm inhibitor, 80° C., 24 hours, CO2 saturated, 80% ASTM Seawater brine / 20% LVT-200, Acetate): 90% and 89%; % Protection ([2]; 10000 ppm inhibitor, 80° C., 24 hours, CO2 saturated, 80% ASTM Seawater brine / 20% LVT-200, Acetate): 89% and 90%; average protection efficiency ([2]; average of Table 3 (500-50000 ppm)): 89%
CC(=O)O.CCCCCCCC/C=C\CCCCCCCC1=NCCN1CCNC1OC(CO)C(O)C(O)C1O (stereo not shown) [Formula 1, (Z)-2-((2-(2-(heptadec-8-en-1-yl)-4,5-dihydro-1H-imidazol-1-yl)ethyl)amino)-6-(hydroxymethyl)tetrahydro-2H-pyran-3,4,5-triol acetate salt]		22%	32%	54%	63%			94%	perform significantly better than the comparative sample even at low dosage rates	% Protection ([2]; 500 ppm inhibitor, 80° C., 24 hours, CO2 saturated, 80% ASTM Seawater brine / 20% LVT-200): 95%; % Protection ([2]; 1000 ppm inhibitor, 80° C., 24 hours, CO2 saturated, 80% ASTM Seawater brine / 20% LVT-200, listed as Formulation 1, acetate salt): 93% and 94%; % Protection ([2]; 2000 ppm inhibitor, 80° C., 24 hours, CO2 saturated, 80% ASTM Seawater brine / 20% LVT-200, listed as Formulation 1, acetate salt): 93% and 94%; % Protection ([2]; 10000 ppm inhibitor, 80° C., 24 hours, CO2 saturated, 80% ASTM Seawater brine / 20% LVT-200, listed as Formulation 1, acetate salt): 95% and 94%; % Protection ([2]; 20000 ppm inhibitor, 80° C., 24 hours, CO2 saturated, 80% ASTM Seawater brine / 20% LVT-200, listed as Formulation 1, acetate salt): 96% and 95%; % Protection ([2]; 50000 ppm inhibitor, 80° C., 24 hours, CO2 saturated, 80% ASTM Seawater brine / 20% LVT-200, listed as Formulation 1, acetate salt): 95% and 94%

From patent US20250369124A1, “IMIDAZOLINE-SUGAR CONJUGATE COMPOSITIONS AND METHODS FOR INHIBITING CORROSION” (Ecolab USA Inc., priority 2024, published 2025)
